According to patent US20020035061A1, “COMPOSITIONS AND METHODS FOR TREATING INFECTIONS USING CATIONIC PEPTIDES ALONE OR IN COMBINATION WITH ANTIBIOTICS” (priority 1996, published 2002):
Like-named read-outs stand apart in the source and are kept apart here.

Experiments:
Type in all cases: cell-based
E. coli = conditions: for Peptide MIC values: agarose dilution
P. aeruginosa = conditions: for Peptide MIC values: agarose dilution
[1] = tested on: microorganisms with acquired resistance; test: microbe, parasite or virus in culture; conditions: for Peptide MIC Alone: Tobramycin section; for FIC: peptide + Tobramycin
S. marcescens = conditions: for Peptide MIC values: agarose dilution
P. vulgaris = test: Agarose dilution assay (MIC); conditions: agarose dilution; P. vulgaris ATCC 13315
S. pneumoniae = test: Agarose dilution assay (MIC); conditions: for Peptide MIC values: agarose dilution
bacterial isolates = test: microbe, parasite or virus in culture
H. influenzae = test: Agarose dilution assay (MIC); conditions: H. influenzae strain HIN002
E. faecium = tested on: E. faecium
[2] = tested on: inherently resistant microorganisms; test: microbe, parasite or virus in culture; conditions: S. aureus
S. aureus = conditions: for Peptide MIC values: agarose dilution
E. faecalis = E. faecalis strain EFS002
[3] = S. aureus SA025 (also SA025 MRSA)

Sequence: ILKKWPWWPWK [MBI 11G13CN]
- MIC (E. coli; E. coli strain ECO002): 32 µg/mL
- MIC (E. coli; E. coli strain SBECO3): 32 µg/mL
- Peptide MIC values (E. coli; E. coli ATCC 25922): 64 µg/mL
- Peptide MIC values (E. coli; E. coli ESS): 32 µg/mL
- Peptide MIC values (E. coli; E. coli NCTC 10418): 16 µg/mL
- MIC (P. aeruginosa; P. aeruginosa strain PA004): >128 µg/mL
- Peptide MIC values (P. aeruginosa; P. aeruginosa ATCC 27853): >128 µg/mL
- Peptide MIC values (P. aeruginosa; P. aeruginosa NCTC 10662): >128 µg/mL
- Peptide MIC + Tobramycin ([1]; A. baumannii ABI001): 32 µg/mL
- Tobramycin MIC + Peptide ([1]; A. baumannii ABI001): 4 µg/mL
- Peptide MIC Alone ([1]; A. baumannii ABI001): 128 µg/mL
- Peptide MIC ([1]; E. faecium, combination with Mupirocin, in µg/mL): 32
- Peptide MIC + Tobramycin ([1]; P. aeruginosa PA022): 16 µg/mL
- Tobramycin MIC + Peptide ([1]; P. aeruginosa PA022): 4 µg/mL
- Peptide MIC Alone ([1]; P. aeruginosa PA022): >128 µg/mL
- FIC ([1]; A. baumannii ABI001): 0.50
- FIC ([1]; P. aeruginosa PA022): 0.56
- MIC (S. marcescens; S. marcescens strain SBSM1): >128 µg/mL
- Peptide MIC values (S. marcescens; S. marcescens SM76): >128 µg/mL
- Peptide MIC values (S. marcescens; S. marcescens SM82): >128 µg/mL
- Peptide MIC values (P. vulgaris): >128 µg/mL
- MIC (S. pneumoniae; S. pneumoniae strain SBSPN3): 128 µg/mL
- Peptide MIC values (S. pneumoniae; S. pneumoniae 406LE8): 128 µg/mL
- Peptide MIC values (S. pneumoniae; S. pneumoniae 60120): >128 µg/mL
- Peptide MIC values (S. pneumoniae; S. pneumoniae ATCC 49619): 128 µg/mL
- Peptide MIC + Tobramycin (bacterial isolates; A. baumannii ABI001): 32 µg/mL
- Tobramycin MIC + Peptide (bacterial isolates; A. baumannii ABI001): 4 µg/mL
- Peptide MIC Alone (bacterial isolates; A. baumannii ABI001, Tobramycin section): 128 µg/mL
- Mupirocin MIC + Peptide (bacterial isolates; E. coli ECO5): 30 µg/mL
- Peptide MIC + Mupirocin (bacterial isolates; E. coli ECO5): 8 µg/mL
- Peptide MIC Alone (bacterial isolates; E. coli ECO5, Mupirocin section): 64 µg/mL
- Mupirocin MIC + Peptide (bacterial isolates; E. coli SBECO2): 30 µg/mL
- Peptide MIC + Mupirocin (bacterial isolates; E. coli SBECO2): 8 µg/mL
- Peptide MIC Alone (bacterial isolates; E. coli SBECO2, Mupirocin section): 64 µg/mL
- Peptide MIC + Tobramycin (bacterial isolates; P. aeruginosa PA022): 16 µg/mL
- Tobramycin MIC + Peptide (bacterial isolates; P. aeruginosa PA022): 4 µg/mL
- Peptide MIC Alone (bacterial isolates; P. aeruginosa PA022, Tobramycin section): >128 µg/mL
- Peptide MIC + Tobramycin (bacterial isolates; [3]): 2 µg/mL
- Tobramycin MIC + Peptide (bacterial isolates; [3]): 0.125 µg/mL
- Peptide MIC Alone (bacterial isolates; S. aureus SA025 (also SA025 MRSA), Tobramycin section): 4 µg/mL
- Peptide MIC + Tobramycin (bacterial isolates; S. maltophilia SMA029): 0.125 µg/mL
- Tobramycin MIC + Peptide (bacterial isolates; S. maltophilia SMA029): 64 µg/mL
- Peptide MIC Alone (bacterial isolates; S. maltophilia SMA029, Tobramycin section): >128 µg/mL
- Peptide MIC + Tobramycin (bacterial isolates; S. maltophilia SMA030): 0.125 µg/mL
- Tobramycin MIC + Peptide (bacterial isolates; S. maltophilia SMA030): 64 µg/mL
- Peptide MIC Alone (bacterial isolates; S. maltophilia SMA030, Tobramycin section): >128 µg/mL
- FIC (bacterial isolates; peptide + Mupirocin, E. coli ECO5): 0.43
- FIC (bacterial isolates; peptide + Mupirocin, E. coli SBECO2): 0.16
- FIC (bacterial isolates; peptide + Tobramycin, A. baumannii ABI001): 0.50
- FIC (bacterial isolates; peptide + Tobramycin, P. aeruginosa PA022): 0.56
- FIC (bacterial isolates; peptide + Tobramycin, S. aureus SA025 (also SA025 MRSA)): 0.50
- FIC (bacterial isolates; peptide + Tobramycin, S. maltophilia SMA029): 0.50
- FIC (bacterial isolates; peptide + Tobramycin, S. maltophilia SMA030): 0.50
- MIC (H. influenzae): >128 µg/mL
- MIC (E. faecium; E. faecium strain EFM002): 16 µg/mL
- Peptide MIC values (E. faecium; agarose dilution): 32 µg/mL
- Peptide MIC + Tobramycin [2]: 2 µg/mL
- Peptide MIC Alone ([2]; Tobramycin section): 4 µg/mL
- FIC ([2]; peptide + Tobramycin): 0.50
- MIC (S. aureus; S. aureus strain SA004): 4 µg/mL
- Peptide MIC values (S. aureus; S. aureus ATCC 29213): 1 µg/mL
- Peptide MIC values (S. aureus; S. aureus MRSA9): 8 µg/mL
- Peptide MIC values (S. aureus; S. aureus MRSA13): 64 µg/mL
- Peptide MIC values (S. aureus; S. aureus MRSA17): 16 µg/mL
- Peptide MIC values (S. aureus; S. aureus SA206): 32 µg/mL
- MIC (E. faecalis): 64 µg/mL
